The values below come from publication PMC4820240 (Angewandte Chemie (International ed. in English), 2016).

By IC50 is commonly meant the concentration that gives 50% inhibition. In general, EC50 refers to the concentration at which the effect is half-maximal.

One series concerns MCF-7 cells. The note with it: read-out: IC50 MCF-7; toxicity towards MCF-7 cells.
In the next series the test system is HeLa cells. The note with it: read-out: IC50 HeLa; toxicity towards HeLa cells.
A short description of series [1]: Serum stability in 25% serum solution. As to conditions: 25% serum solution as a function of time (Figure 4B legend).
For a further series, the system named is human RBCs. The note with it: read-out: EC50 RBCs (hemolysis); freshly isolated human RBCs.
In a further series the test system is A549 cells. As to the kind of experiment: Cytotoxicity of CPPs towards A549 cells. Type of series: cell-based. The note with it: read-out: IC50 A549; toxicity towards A549 cells.

Molecules are shown by their SMILES.

On to `N=C(N)NCCC[C@H](NC(=O)CN)C(=O)N[C@@H](CCCCN)C(=O)N[C@@H](CCCCN)C(=O)N[C@@H](CCCNC(=N)N)C(=O)N[C@@H](CCCNC(=N)N)C(=O)N[C@@H](CCC(N)=O)C(=O)N[C@@H](CCCNC(=N)N)C(=O)N[C@@H](CCCNC(=N)N)C(=O)N[C@@H](CCCNC(=N)N)C(=O)N1CCC[C@H]1C(=O)N1CCC[C@H]1C(=O)N[C@@H](CCC(N)=O)C(N)=O` [TAT], for which the half-maximal inhibitory concentration (IC50) was 603 µM with MCF-7 cells, more than 1000 µM with HeLa cells and more than 1000 µM in the series with A549 cells. Moreover, in series [1], the “t1/2, serum stability” value was 1.7 h. In addition, the half-maximal effective concentration (EC50) in the series on human RBCs was 269 µM.

As to `N=C(N)NCCC[C@H](NC(=O)[C@H](CCCNC(=N)N)NC(=O)[C@H](CCCNC(=N)N)NC(=O)[C@H](CCCNC(=N)N)NC(=O)[C@H](CCCNC(=N)N)NC(=O)[C@H](CCCNC(=N)N)NC(=O)[C@H](CCCNC(=N)N)NC(=O)[C@@H](N)CCCNC(=N)N)C(N)=O` [R8], the IC50 is 170 µM in the series with MCF-7 cells, 269 µM with HeLa cells and more than 1000 µM with A549 cells. The concentration for a half-maximal effect (EC50) in the series with human RBCs is 371 µM.
